Patent US20050080140A1, “Method for treating or preventing inflammatory disorders” (AnGes MG, Inc., priority 2003, published 2005)

Columns and labels:
[1] = system: IL-13 gene; test: RT-PCR analysis of IL-13 mRNA; format: cell-based, human; details: HUVEC, 10 μM cPGI, 12 h, FIG. 1A
Method: (§1) For analysis of IL-13, human vascular endothelial cells (1.2×10^4 cells/cm^2) were stimulated with cPGI (10 μM) for 12 h, and total RNA was prepared from stimulated cells with Isogen (Nippon Gene). For analysis of COX-2, human vascular endothelial cells (1.2×10^4 cells/cm^2) were pretreated with TNF-α (1 ng/ml) and IL-1b (20 ng/ml) for 1 h, and then treated with cPGI (0, 10 μM), anti-human IL-13 monoclonal antibody (0, 0.5 μg/ml) and control IgG (0, 0.5 μg/ml) for 12 h to prepare total RNA. The total RNA (0.5 μg) was used for analysis by SuperScript RT-PCR system (Invitrogen) according to the manufacturer's instructions. The oligonucleotide primers used were IL-13-s (5′-[…]-3′ (SEQ ID NO: 6); sense) and IL-13-as (5′-[…]-3′ (SEQ ID NO: 7); antisense) for human IL-13, β-actin-s (5′-[…]-3′ (SEQ ID NO: 8); sense) and β-actin-as (5′-[…]-3′ (SEQ ID NO: 9); antisense) for human β-actin, and COX-2-s (5′-[…]-3′ (SEQ ID NO: 10); sense) and COX-2-as (5′-[…]-3′ (SEQ ID NO: 11); antisense) for human COX-2. For each PCR amplification, 1 μl of cDNA was used in a 50 μl reaction. Reverse transcription-PCR (RT-PCR) for β-actin (25 cycles) was used as an internal control for mRNA abundance. For IL-13 and COX-2 genes, the number of cycles ranged from 25 to 45. […] Samples were normalized based on equivalent expression of β-actin.

[2] = system: promoter region of the human IL-13 gene; test: IL-13 promoter-luciferase reporter assay; format: cell-based; details: 10 μM cPGI, 24 h
Excerpt: Promoter sequences of human IL-13 gene containing PPRE and GATA elements were isolated from human leukocyte genomic DNA by polymerase chain reaction (PCR) with primers A (5′-[…]-3′ (SEQ ID NO: 3); sense) and D (5′-[…]-3′ (SEQ ID No: 4); antisense) for the 1.3 kbp fragment, and B (5′-[…]-3′ (SEQ ID NO: 5); sense) and D for the 0.4 kbp fragment. Each fragment was inserted into the MluI-XbaI site of pGL3-promoter vector (Promega, Madison, Wis.). Human vascular endothelial cells (1.2×10^4 cells/cm^2) were cotransfected with 0.2 μg of IL-13-luciferase reporter vector, 0.1 μg of β-galactosidase expression vector and 0.7 μg of expression vector for PPARδwt, PPARδdn, CREBwt, CREBdn or mock vector by use of TransIT LT-1. After 17 h of transfection, cells were incubated in fresh EGM-2 containing 2% FBS. After another 24 h, the cells were washed with PBS, and cultured in EGF-2 containing 2% FBS with 10 μM cPGI for 24 h to quantify luciferase and β-galactosidase activities as described previously (Hatae et al., J. Biol. Chem. (2001) 276: 46260-7). The luciferase activity of the extract was normalized to β-galactosidase activity.

[3] = system: COX-2 gene; test: RT-PCR analysis of COX-2 mRNA; format: cell-based, human; details: HUVEC, cPGI 10 μM, 12 h, FIG. 5 lane 3
Method: as §1

[4] = system: PPRE (PPARδ activation); test: PPREx3-luciferase reporter assay; format: cell-based, human; details: HUVEC, 24 h
Method: Primary cultured human umbilical vein endothelial cells (HUVEC) and human aortic endothelial cells (HAEC) were obtained from Kurabo Co. Ltd. (Tokyo, Japan) and were cultured in EGM-2 growth medium supplemented with 2% fetal bovine serum (FBS) and a mixture of growth factors according to the supplier's instructions. Total RNA from the cells in culture was prepared with Isogen (Nippon Gene, Tokyo, Japan). Human embryonic kidney HEK-293 cells were cultured in DMEM containing 10% FBS, 2 mM L-glutamine, 100 U/ml penicillin and […] streptomycin as described previously (Hatae et al., J. Biol. Chem. (2001) 276: 46260-7). […] HEK-293 cells were transfected with DNA using lipofectAMINE (Invitrogen, Carlsbad, Calif.) as described previously (Hatae et al., J. Biol. Chem. (2001) 276: 46260-7). Human vascular endothelial cells were transfected with TransIT LT-1 (PanVera Co., Madison, Wis.). Transfections were performed at a ratio of 1 μg of DNA to 3.0 μl of the reagents, and cells were incubated in serum-free EGM-2 at 37° C. for 5 h. Subsequently, cells were grown in fresh EGM-2 containing 2% FBS and a mixture of growth factors for 12 h before analysis. For reporter assay, human vascular endothelial cells (1.2×10^4 cells/cm^2) were cotransfected with 0.2 μg of the PPREx3-luciferase reporter vector and 0.1 μg of β-galactosidase expression vector by use of TransIT LT-1. After 17 h of transfection, cells were washed with PBS, incubated in EGM-2 containing 2% FBS and cPGI (0-100 μM) for 24 h at 37° C., and subjected to luciferase assay as described previously (Hatae et al., J. Biol. Chem. (2001) 276: 46260-7). The luciferase activity of the extract was normalized to β-galactosidase activity.

[5] = 413 bp IL-13 promoter fragment, FIG. 3

- cPGI-dependent IL-13 promoter luciferase activity on coexpression of dominant negative CREB (CREBdn) [2, 5]: no effect
- cPGI-dependent increase of IL-13 promoter luciferase activity on cotransfection of dominant negative PPARδ (PPARδdn) [2, 5]: suppressed
- luciferase activity of reporter vector containing GATA sequences without PPREs ([2]; HUVEC, FIG. 2B): increased only weakly
- luciferase activity of reporter vectors containing the PPRE consensus region of the IL-13 promoter ([2]; HUVEC, FIG. 2B): significantly increase
- luciferase activity of vectors from which the PPRE consensus sequence region had been deleted ([2]; HUVEC, FIG. 2B): not increased
- luciferase activity of PPRE reporter, exogenous cPGI added to TNF-α ([4]; TNF-α 0-10 ng/ml with cPGI 0, 2 or 10 μM, dose-dependent, FIG. 4B): enhanced
- luciferase activity of reporter vector containing PPRE ([4]; cPGI 0, 1, 10 and 100 μM, FIG. 1C): dose-dependent
Structure (SMILES): CCCCC[C@H](O)/C=C/[C@@H]1[C@H]2C/C(=C/CCCC(=O)O)C[C@H]2C[C@H]1O [cPGI, carbaprostacyclin]
- IL-13 mRNA expression (RT-PCR) [1]: apparent induction
- inducible expression of COX-2 (TNF-α and IL-1 induced) [3]: significantly inhibited
